Measurements from patent US20230085307A1, “PYRIDAZINONE COMPOUND AND HERBICIDE” (NISSAN CHEMICAL CORPORATION, priority 2019, published 2023).

How the values were obtained:
velvetleaf [1] = test: Test Example 4: herbicidal effect by soil treatment (Table 19, symbol M); format: in vivo, velvetleaf (Abutilon theophrasti); settings: amount of applied herbicide 320 g/ha
Procedure, shortened: (§1)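 Scoring uses the grading scale of an earlier test, three weeks post-application. Treatment consists of spraying a diluted emulsion formulation across the surface of sterilized diluvial soil in which seeds are buried near 1.5 cm deep; boxes are kept in a greenhouse between 25° C. and 30° C.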

barnyard grass [2] = test: Test Example 3: herbicidal effect by foliage application, Wagner pot (Table 18, symbol H); format: in vivo, barnyard grass (Echinochloa crus-galli); settings: amount of applied herbicide 320 g/ha
Procedure, shortened: (§2)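 Plants were sown in alluvial soil held under 0.1–0.5 cm standing water and grown 14 days in a greenhouse at 25–30 °C. An emulsifiable formulation, water-diluted to the set dose, was then sprayed onto the foliage, and effects were scored three weeks later using previously defined criteria.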

barnyard grass [3] = test: Test Example 5: herbicidal effect by foliage application, plastic box (Table 20, symbol H); format: in vivo, barnyard grass (Echinochloa crus-galli); settings: foliage application, 320 g/ha, evaluated three weeks after application
Procedure, shortened: (§3)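 Post-emergence foliar test in sterilized diluvial soil. Compound applied as water-diluted emulsion at a predetermined rate to 14-day-old plants; evaluation at three weeks.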

blackgrass [4] = test: Test Example 5: herbicidal effect by foliage application, plastic box (Table 20, symbol J); format: in vivo, blackgrass (Alopecurus myosuroides); settings: foliage application, 320 g/ha, evaluated three weeks after application
Procedure, shortened: as §3

Italian ryegrass [5] = test: Test Example 4: herbicidal effect by soil treatment (Table 19, symbol K); format: in vivo, Italian ryegrass (Lolium multiflorum); settings: amount of applied herbicide 320 g/ha
Procedure, shortened: as §1

wild oat [6] = test: Test Example 4: herbicidal effect by soil treatment (Table 19, symbol I); format: in vivo, wild oat (Avena fatua); settings: amount of applied herbicide 320 g/ha
Procedure, shortened: as §1

oval-leafed pondweed = test: Test Example 1: herbicidal activity, application before weed generation under submerged conditions (Table 16, symbol C); format: in vivo, oval-leafed pondweed (Monochoria vaginalis); settings: 320 g/ha applied herbicide
Procedure, shortened: (§4)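 Submerged Wagner pots (alluvial soil, 4 cm water) sown with weed seeds and planted with 2.5-leaf rice seedlings; emulsifiable concentrate diluted in water applied to water surface on sowing day. Held in greenhouse at 25-30 °C; injury scored 0-5 by herbicidal rate after three weeks.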

lambsquarters [7] = test: Test Example 4: herbicidal effect by soil treatment (Table 19, symbol O); format: in vivo, lambsquarters (Chenopodium album); settings: amount of applied herbicide 320 g/ha
Procedure, shortened: as §1

lambsquarters [8] = test: Test Example 5: herbicidal effect by foliage application, plastic box (Table 20, symbol O); format: in vivo, lambsquarters (Chenopodium album); settings: foliage application, 320 g/ha, evaluated three weeks after application
Procedure, shortened: as §3

green foxtail [9] = test: Test Example 5: herbicidal effect by foliage application, plastic box (Table 20, symbol G); format: in vivo, green foxtail (Setaria viridis); settings: foliage application, 320 g/ha, evaluated three weeks after application
Procedure, shortened: as §3

chickweed [10] = test: Test Example 5: herbicidal effect by foliage application, plastic box (Table 20, symbol P); format: in vivo, common chickweed (Stellaria media); settings: foliage application, 320 g/ha, evaluated three weeks after application
Procedure, shortened: as §3

rice flat sedge = test: Test Example 3: herbicidal effect by foliage application, Wagner pot (Table 18, symbol E); format: in vivo, rice flat sedge (Cyperus iria); settings: amount of applied herbicide 320 g/ha
Procedure, shortened: as §2

chickweed [11] = test: Test Example 4: herbicidal effect by soil treatment (Table 19, symbol P); format: in vivo, common chickweed (Stellaria media); settings: amount of applied herbicide 320 g/ha
Procedure, shortened: as §1

late watergrass = test: Test Example 1: herbicidal activity, application before weed generation under submerged conditions (Table 16, symbol A); format: in vivo, late watergrass (Echinochloa oryzicola); settings: 320 g/ha applied herbicide
Procedure, shortened: as §4

green foxtail [12] = test: Test Example 4: herbicidal effect by soil treatment (Table 19, symbol G); format: in vivo, green foxtail (Setaria viridis); settings: amount of applied herbicide 320 g/ha
Procedure, shortened: as §1

redroot pigweed [13] = test: Test Example 5: herbicidal effect by foliage application, plastic box (Table 20, symbol N); format: in vivo, redroot pigweed (Amaranthus retroflexus); settings: foliage application, 320 g/ha, evaluated three weeks after application
Procedure, shortened: as §3

barnyard grass [14] = test: Test Example 4: herbicidal effect by soil treatment (Table 19, symbol H); format: in vivo, barnyard grass (Echinochloa crus-galli); settings: amount of applied herbicide 320 g/ha
Procedure, shortened: as §1

persian speedwell [15] = test: Test Example 4: herbicidal effect by soil treatment (Table 19, symbol R); format: in vivo, Persian speedwell (Veronica persica); settings: amount of applied herbicide 320 g/ha
Procedure, shortened: as §1

windgrass [16] = test: Test Example 4: herbicidal effect by soil treatment (Table 19, symbol L); format: in vivo, windgrass (Apera spica-venti); settings: amount of applied herbicide 320 g/ha
Procedure, shortened: as §1

southern crabgrass [17] = test: Test Example 4: herbicidal effect by soil treatment (Table 19, symbol F); format: in vivo, southern crabgrass (Digitaria ciliaris); settings: amount of applied herbicide 320 g/ha
Procedure, shortened: as §1

windgrass [18] = test: Test Example 5: herbicidal effect by foliage application, plastic box (Table 20, symbol L); format: in vivo, windgrass (Apera spica-venti); settings: foliage application, 320 g/ha, evaluated three weeks after application
Procedure, shortened: as §3

blackgrass [19] = test: Test Example 4: herbicidal effect by soil treatment (Table 19, symbol J); format: in vivo, blackgrass (Alopecurus myosuroides); settings: amount of applied herbicide 320 g/ha
Procedure, shortened: as §1

southern crabgrass [20] = test: Test Example 5: herbicidal effect by foliage application, plastic box (Table 20, symbol F); format: in vivo, southern crabgrass (Digitaria ciliaris); settings: foliage application, 320 g/ha, evaluated three weeks after application
Procedure, shortened: as §3

Japanese bulrush = test: Test Example 1: herbicidal activity, application before weed generation under submerged conditions (Table 16, symbol B); format: in vivo, Japanese bulrush (Schoenoplectus juncoides); settings: 320 g/ha applied herbicide
Procedure, shortened: as §4

Chinese sprangletop = test: Test Example 3: herbicidal effect by foliage application, Wagner pot (Table 18, symbol D); format: in vivo, chinese sprangletop (Leptochloa chinensis); settings: amount of applied herbicide 320 g/ha
Procedure, shortened: as §2

persian speedwell [21] = test: Test Example 5: herbicidal effect by foliage application, plastic box (Table 20, symbol R); format: in vivo, Persian speedwell (Veronica persica); settings: foliage application, 320 g/ha, evaluated three weeks after application
Procedure, shortened: as §3

false cleavers = test: Test Example 5: herbicidal effect by foliage application, plastic box (Table 20, symbol Q); format: in vivo, false cleavers (Galium spurium); settings: foliage application, 320 g/ha, evaluated three weeks after application
Procedure, shortened: as §3

velvetleaf [22] = test: Test Example 5: herbicidal effect by foliage application, plastic box (Table 20, symbol M); format: in vivo, velvetleaf (Abutilon theophrasti); settings: foliage application, 320 g/ha, evaluated three weeks after application
Procedure, shortened: as §3

wild oat [23] = test: Test Example 5: herbicidal effect by foliage application, plastic box (Table 20, symbol I); format: in vivo, wild oat (Avena fatua); settings: foliage application, 320 g/ha, evaluated three weeks after application
Procedure, shortened: as §3

redroot pigweed [24] = test: Test Example 4: herbicidal effect by soil treatment (Table 19, symbol N); format: in vivo, redroot pigweed (Amaranthus retroflexus); settings: amount of applied herbicide 320 g/ha
Procedure, shortened: as §1

Italian ryegrass [25] = test: Test Example 5: herbicidal effect by foliage application, plastic box (Table 20, symbol K); format: in vivo, Italian ryegrass (Lolium multiflorum); settings: foliage application, 320 g/ha, evaluated three weeks after application
Procedure, shortened: as §3

## CCCC(=O)Oc1c(C)nn(C)c(=O)c1-c1c(-c2ccc(OC)c(F)c2)sc2ccc(Cl)cc12 [2-118]
Velvetleaf [1]
  M: velvetleaf, herbicidal effect rating: 1 (Herbicidal rate of 5% or more and less than 20%)
Barnyard grass [2]
  herbicidal effect on H: barnyard grass: 2 (Herbicidal rate of 20% or more and less than 40%)
Barnyard grass [3]
  herbicidal effect on H: barnyard grass: 0 (Herbicidal rate of 5% or less (almost no effect))
Blackgrass [4]
  herbicidal effect on J: blackgrass: 0 (Herbicidal rate of 5% or less (almost no effect))
Italian ryegrass [5]
  K: Italian ryegrass, herbicidal effect rating: 0 (Herbicidal rate of 5% or less (almost no effect))
Wild oat [6]
  I: wild oat, herbicidal effect rating: 0 (Herbicidal rate of 5% or less (almost no effect))
oval-leafed pondweed
  Herbicidal effect on C: oval-leafed pondweed (grade 0-5): 0 (Herbicidal rate of 5% or less (almost no effect))
Lambsquarters [7]
  O: lambsquarters, herbicidal effect rating: 2 (Herbicidal rate of 20% or more and less than 40%)
Lambsquarters [8]
  herbicidal effect on O: lambsquarters: 1 (Herbicidal rate of 5% or more and less than 20%)
Green foxtail [9]
  herbicidal effect on G: green foxtail: 0 (Herbicidal rate of 5% or less (almost no effect))
Chickweed [10]
  herbicidal effect on P: chickweed: 5 (Herbicidal rate of 90% or more (almost completely withered))
Rice flat sedge
  herbicidal effect on E: rice flat sedge: 0 (Herbicidal rate of 5% or less (almost no effect))
Chickweed [11]
  P: chickweed, herbicidal effect rating: 4 (Herbicidal rate of 70% or more and less than 90%)
Late watergrass
  Herbicidal effect on A: late watergrass (grade 0-5): 4 (Herbicidal rate of 70% or more and less than 90%)
Green foxtail [12]
  G: green foxtail, herbicidal effect rating: 0 (Herbicidal rate of 5% or less (almost no effect))
Redroot pigweed [13]
  herbicidal effect on N: redroot pigweed: 0 (Herbicidal rate of 5% or less (almost no effect))
Barnyard grass [14]
  H: barnyard grass, herbicidal effect rating: 0 (Herbicidal rate of 5% or less (almost no effect))
Persian speedwell [15]
  R: persian speedwell, herbicidal effect rating: 5 (Herbicidal rate of 90% or more (almost completely withered))
Windgrass [16]
  L: windgrass, herbicidal effect rating: 0 (Herbicidal rate of 5% or less (almost no effect))
Southern crabgrass [17]
  F: southern crabgrass, herbicidal effect rating: 0 (Herbicidal rate of 5% or less (almost no effect))
Windgrass [18]
  herbicidal effect on L: windgrass: 0 (Herbicidal rate of 5% or less (almost no effect))
Blackgrass [19]
  J: blackgrass, herbicidal effect rating: 0 (Herbicidal rate of 5% or less (almost no effect))
Southern crabgrass [20]
  herbicidal effect on F: southern crabgrass: 0 (Herbicidal rate of 5% or less (almost no effect))
Japanese bulrush
  Herbicidal effect on B: Japanese bulrush (grade 0-5): 3 (Herbicidal rate of 40% or more and less than 70%)
Chinese sprangletop
  herbicidal effect on D: Chinese sprangletop: 0 (Herbicidal rate of 5% or less (almost no effect))
Persian speedwell [21]
  herbicidal effect on R: persian speedwell: 5 (Herbicidal rate of 90% or more (almost completely withered))
False cleavers
  herbicidal effect on Q: false cleavers: 1 (Herbicidal rate of 5% or more and less than 20%)
Velvetleaf [22]
  herbicidal effect on M: velvetleaf: 3 (Herbicidal rate of 40% or more and less than 70%)
Wild oat [23]
  herbicidal effect on I: wild oat: 0 (Herbicidal rate of 5% or less (almost no effect))
Redroot pigweed [24]
  N: redroot pigweed, herbicidal effect rating: 0 (Herbicidal rate of 5% or less (almost no effect))
Italian ryegrass [25]
  herbicidal effect on K: Italian ryegrass: 0 (Herbicidal rate of 5% or less (almost no effect))
